Measured values reported in US20110039763A1, “TARGETED ANTIMICROBIAL MOIETIES” (C3 JIAN, INC., priority 2009, published 2011).
“Also recorded” adds a separate entry of the source.

Experiments:
[1] = tested on: S. mutans; test: MIC test (broth microdilution) / antimicrobial activity, S. mutans; type: cell-based, Streptococcus mutans
Procedure: (§1) The active AMPs, STAMPs and the like can be identified and/or validated using an in vitro screening assay.
(§2) It will be appreciated that other assays as are well known in the art or that will become apparent to those having skill in the art upon review of this disclosure may also be used to identify active AMPs. Such assays include, for example, the assay described in Lehrer et al. (1988) J. Immunol.
(§3) Peptides were evaluated for basic antimicrobial activity by broth microdilution, as described previously (Eckert et al. (2006) Antimicrob Agents Chemother., 50: 3651-3657; Eckert et al. (2006) Antimicrob Agents Chemother., 50: 1480-1488). Briefly, ˜1×10^5 cfu/mL bacteria were diluted in TH (S. mutans), or Mueller-Hinton (MH) broth (all other organisms) and distributed to 96-well plates. Serially-diluted (2-fold) peptides were then added and the plates incubated at 37° C. for 18-24 h. […] All experiments were conducted 10 times.

[2] = tested on: microorganisms; test: Morphology, biofilm and growth disrupting peptides (Table 5); type: cell-based; parameters: key: A: Peptide aggregates; B: Less hyphal formation; Clumps; Diffuse clumps and small polyps; F: Diffuse growth; H: Thin; I: Growth inhibition; Microcolony formation; Rippled; Small polyps; Thick; W: Halo formation on top, microlonies on bottom
Excerpt: In certain embodiments peptides that induce alterations in phenotype or other biological activities can also be used as antimicrobial effector moieties.

[3] = tested on: microorganisms; test: Peptide activities: targeting/binding, antimicrobial, growth or phenotype altering (Tables 7, 8); type: cell-based; settings: peptides having multiple activities
[4] = tested on: B. subtilis; test: MIC test / antimicrobial activity, B. subtilis; type: cell-based, Bacillus subtilis; settings: B. subtilis
Procedure: as §1, §2, §3

[5] = tested on: microorganisms; test: Targeting peptide binding to target microorganisms (Tables 3, 10, 12); settings: microorganism(s) the targeting peptide binds; binding in aqueous buffers varied with peptide solubility, preferably 1x PBS

Molecule: FIRKFLKKWLL [K-9]
- Organism MIC (μM) [1]: S. mutans, 4 μM

Molecule: FLKFLKKFFKKLKY [K-20]
- Organism MIC (μM) [1]: S. mutans, 8 μM

Molecule: FTRKFLKFLHL [K-17]
- Organism MIC (μM) [1]: S. mutans, 8 μM

Molecule: GIFKKFVKILYKVQKL [K-22]
- Organism MIC (μM) [1]: S. mutans, 8 μM

Molecule: GILKKLFTKVF [K-13]
- Organism MIC (μM) [1]: S. mutans, 16 μM

Molecule: GIVLIGLKLIPLLANVLR [PF-322]
- Organism, effect: B. subtilis [2]: B. subtilis (H)
- Organism, effect: S. epidermidis [2]: S. epidermidis (C)
- Activities [3]: G M
- Organism MIC (μM) [4]: B. subtilis, 50 μM

Molecule: GLGRVIGRLIKQIIWRR [K-1]
- Organism MIC (μM) [1]: S. mutans, 25 μM

Molecule: GWLKMFKKIIGKFGKF [K-21]
- Organism MIC (μM) [1]: S. mutans, 8 μM

Molecule: KILKFLFKKVF [K-8]
- Organism MIC (μM) [1]: S. mutans, 4 μM

Molecule: KILKFLFKQVF [K-11]
- Organism MIC (μM) [1]: S. mutans, 4 μM

Molecule: KILKKLFKFVF [K-12]
- Organism MIC (μM) [1]: S. mutans, 8 μM

Molecule: KKFKKFKVLKIL [K-18]
- Organism MIC (μM) [1]: S. mutans, 16 μM

Molecule: KLFKFLRKHLL [K-10]
- Organism MIC (μM) [1]: S. mutans, 4 μM

Molecule: LLKLLKLKKLKF [K-19]
- Organism MIC (μM) [1]: S. mutans, 16 μM

Molecule: LRKFLHKLF [K-14]
- Organism MIC (μM) [1]: S. mutans, 8 μM

Molecule: LRKNLRWLF [K-15]
- Organism MIC (μM) [1]: S. mutans, 4 μM

Molecule: NYRLVNAIFSKIFKKKFIKF [K-7]
- Organism MIC (μM) [1]: S. mutans, 12.5 μM

Molecule: PF-C136: peptide having multiple activities (chain 1 LILSYQASVYPLFAYLCQQKDY; chain 2 LILSYQASVYPLFAYLCQQKDY; Peptide with targeting and/or antimicrobial activity)
- Organism, effect ([2]; F. nucleatum): F. nucleatum (C)
- Organism, effect ([2]; P. gingivalis): P. gingivalis (R)
- Target(s) [5]: A. naeslundii; also recorded: F. nucleatum; also recorded: P. gingivalis; also recorded: S. mutans; also recorded: T. denticola
- Activities [3]: G B

Molecule: PF-C137: peptide having multiple activities (chain 1 QRMYWFKRGFETGDFSAGDTFAELK; chain 2 QRMYWFKRGFETGDFSAGDTFAELK; Peptide with targeting and/or antimicrobial activity)
- Organism, effect ([2]; F. nucleatum): F. nucleatum (T)
- Target(s) [5]: A. naeslundii; also recorded: F. nucleatum; also recorded: P. gingivalis; also recorded: S. mutans
- Activities [3]: G B

Molecule: PF-C139: peptide having multiple activities (chain 1 LLASHPERLSLGVFFVYRVLHLLLENT; chain 2 LLASHPERLSLGVFFVYRVLHLLLENT; Peptide with targeting and/or antimicrobial activity)
- Organism, effect ([2]; S. mutans): S. mutans (F)
- Target(s) [5]: A. naeslundii; also recorded: F. nucleatum; also recorded: P. gingivalis; also recorded: S. mutans; also recorded: T. denticola
- Activities [3]: G B

Molecule: PF-C142: peptide having multiple activities (chain 1 DFPPLSFFRRRFHAYTAPIDNFFGANPF; chain 2 DFPPLSFFRRRFHAYTAPIDNFFGANPF; Peptide with targeting and/or antimicrobial activity)
- Organism, effect ([2]; S. mutans): S. mutans (I)
- Target(s) [5]: A. naeslundii; also recorded: F. nucleatum; also recorded: P. gingivalis; also recorded: S. mutans; also recorded: T. denticola
- Activities [3]: G B

Molecule: PF-C143: peptide having multiple activities (chain 1 VVFGGGDRLV; chain 2 VVFGGGDRLV; Peptide with targeting and/or antimicrobial activity)
- Organism, effect ([2]; F. nucleatum): F. nucleatum (C)
- Target(s) [5]: A. naeslundii; also recorded: F. nucleatum; also recorded: P. gingivalis; also recorded: S. mutans; also recorded: T. denticola
- Activities [3]: G B

Molecule: PF-C145: peptide having multiple activities (chain 1 YGKESDP; chain 2 YGKESDP; Peptide with targeting and/or antimicrobial activity)
- Organism, effect ([2]; F. nucleatum): F. nucleatum (C)
- Organism, effect ([2]; S. mutans): S. mutans (I)
- Target(s) [5]: A. naeslundii; also recorded: F. nucleatum; also recorded: P. gingivalis; also recorded: S. mutans; also recorded: T. denticola
- Activities [3]: G B

Molecule: PF-C281: peptide having multiple activities (chain 1 KKEKLLTAIRLQHRAEIRGYFTIFFLFFRI; chain 2 KKEKLLTAIRLQHRAEIRGYFTIFFLFFRI; Peptide with targeting and/or antimicrobial activity)
- Organism, effect ([2]; S. mutans): S. mutans (F)
- Target(s) [5]: A. naeslundii; also recorded: F. nucleatum; also recorded: P. gingivalis; also recorded: S. mutans; also recorded: T. denticola
- Activities [3]: G B

Molecule: PF-C291: peptide having multiple activities (chain 1 HPFLTGTGCPLFLIFRLFFVKAYFSFTVF; chain 2 HPFLTGTGCPLFLIFRLFFVKAYFSFTVF; Peptide with targeting and/or antimicrobial activity)
- Organism, effect ([2]; F. nucleatum): F. nucleatum (T)
- Organism, effect ([2]; S. mutans): S. mutans (F)
- Target(s) [5]: A. naeslundii; also recorded: F. nucleatum; also recorded: P. gingivalis; also recorded: S. mutans
- Activities [3]: G B

Molecule: SIGSMIGMYSFRHKTKHIKFTFGIPFILFLQFLLVYFYILK [PF-319]
- Organism, effect: B. subtilis [2]: B. subtilis (C)
- Organism, effect: S. epidermidis [2]: S. epidermidis (C)
- Target(s) [5]: S. epidermidis; also recorded: B. subtilis; also recorded: C. difficile
- Activities [3]: G B

Molecule: VWENRKKYLENEIERHNVFLKLGQEVIKGLNALASRGR [PF-257]
- Organism, effect: M. luteus [2]: M. luteus (R)
- Target(s) [5]: S. epidermidis
- Activities [3]: G B

Molecule: VYRKRKSILKIYAKLKGWH [K-2]
- Organism MIC (μM) [1]: S. mutans, 12.5 μM

B1: PF-270: peptide having multiple activities (peptide)
chain 1: MYLTPYAWIAVGSIFAFSVTTIKIGDQNDEKQKSHKNDVHKR
chain 2: B1 chain 1
modifications: Peptide with targeting and/or antimicrobial activity
- Organism, effect: M. luteus [2]: M. luteus (H)
- Target(s) [5]: S. epidermidis; also recorded: M. luteus; also recorded: P. aeruginosa
- Activities [3]: G B

B2: PF-389: peptide having multiple activities (peptide)
chain 1: GLQFKEIAEEFHITTTALQQWHKDNGYPIYNKNNRK
chain 2: B2 chain 1
modifications: Peptide with targeting and/or antimicrobial activity
- Organism, effect: C. jejuni ([2]; C. jejuni): C. jejuni (R)
- Organism, effect: E. faecalis ([2]; E. faecalis): E. faecalis (R)
- Organism, effect: MRSA ([2]; MRSA): MRSA (C)
- Organism, effect: S. epidermidis [2]: S. epidermidis (R)
- Organism, effect: S. pneumoniae ([2]; S. pneumoniae): S. pneumoniae (D)
- Target(s) [5]: S. epidermidis and C. albicans and MRSA and S. pneumoniae and E. faecalis and C. jeikeium
- Activities [3]: G B

B3: PF-C091: peptide having multiple activities (peptide)
chain 1: ASNTPRFVRLTLFNFYSKIWNVTHLFLFNNL
chain 2: B3 chain 1
modifications: Peptide with targeting and/or antimicrobial activity
- Organism, effect ([2]; F. nucleatum): F. nucleatum (T)
- Target(s) [5]: A. naeslundii; also recorded: F. nucleatum; also recorded: P. gingivalis; also recorded: S. mutans; also recorded: T. denticola
- Activities [3]: G B

B4: PF-C120: peptide having multiple activities (peptide)
chain 1: ASLSTMTFKVMELKELIILLCGLTMLMIQTEFV
chain 2: B4 chain 1
modifications: Peptide with targeting and/or antimicrobial activity
- Organism, effect ([2]; F. nucleatum): F. nucleatum (T)
- Target(s) [5]: A. naeslundii; also recorded: F. nucleatum; also recorded: P. gingivalis; also recorded: S. mutans; also recorded: T. denticola
- Activities [3]: G B

B5: PF-C180: peptide having multiple activities (peptide)
chain 1: TVEELDKAFTWGAAAALAIGVIAINVGLAAGYCYNNNDVF
chain 2: B5 chain 1
modifications: Peptide with targeting and/or antimicrobial activity
- Organism, effect ([2]; P. gingivalis): P. gingivalis (R)
- Organism, effect ([2]; S. mutans): S. mutans (S)
- Target(s) [5]: F. nucleatum; also recorded: P. gingivalis; also recorded: S. mutans; also recorded: T. denticola
- Activities [3]: G B

B6: PF-C181: peptide having multiple activities (peptide)
chain 1: KMRAGQVVFIYKLILVLLFYVLQKLFDLKKGCF
chain 2: B6 chain 1
modifications: Peptide with targeting and/or antimicrobial activity
- Organism, effect ([2]; F. nucleatum): F. nucleatum (T)
- Target(s) [5]: P. gingivalis
- Activities [3]: G B
